Results reported in patent US9650364B2, “Quinazolines as kinase inhibitors” (GlaxoSmithKline Intellectual Property Development Limited, priority 2013, dated 2017).
Like-named read-outs stand apart in the source and are kept apart here. Each block holds one compound with its values, some of them ahead of it.

How the values were obtained:
[1] = target: T1, RIPK2 (full length FLAG His tagged) (Homo sapiens, UniProt O43353); test: Fluorescent polarization based binding assay at the ATP binding pocket of RIPK2; conditions: RIPK2 FP binding
T1 construct: Full length FLAG His tagged RIPK2 was purified from a Baculovirus expression system; FLAG (N); 6His (N); made in house; host or cells: Spodoptera frugiperda (Sf9) insect cells, baculovirus
T1 sequence (O43353 whole entry): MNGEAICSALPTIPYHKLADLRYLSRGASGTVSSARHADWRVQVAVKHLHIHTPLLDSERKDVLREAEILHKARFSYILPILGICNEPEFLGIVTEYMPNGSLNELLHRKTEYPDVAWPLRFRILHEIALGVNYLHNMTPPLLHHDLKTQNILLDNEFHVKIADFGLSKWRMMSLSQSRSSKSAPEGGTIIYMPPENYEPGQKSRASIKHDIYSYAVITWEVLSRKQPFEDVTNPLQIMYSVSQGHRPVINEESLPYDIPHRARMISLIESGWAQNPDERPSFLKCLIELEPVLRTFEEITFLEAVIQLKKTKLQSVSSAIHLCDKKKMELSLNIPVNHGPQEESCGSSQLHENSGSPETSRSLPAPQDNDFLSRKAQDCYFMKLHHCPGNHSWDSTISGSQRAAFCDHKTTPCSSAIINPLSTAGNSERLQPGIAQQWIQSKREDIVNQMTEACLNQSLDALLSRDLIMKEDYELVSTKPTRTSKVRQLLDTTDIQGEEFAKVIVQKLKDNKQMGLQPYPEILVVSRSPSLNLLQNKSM
Source text: A fluorescent polarization based binding assay was developed to quantitate interaction of novel test compounds at the ATP binding pocket of RIPK2, by competition with a fluorescently labeled ATP competitive ligand. Full length FLAG His tagged RIPK2 was purified from a Baculovirus expression system and was used at a final assay concentration of twice the KDapparent. A fluorescent labeled ligand (5-({[2-({[3-({4-[(5-hydroxy-2-methylphenyl)amino]-2-pyrimidinyl}amino)phenyl]carbonyl}amino)ethyl]amino}carbonyl)-2-(6-hydroxy-3-oxo-3H-xanthen-9-yl)benzoic acid, prepared as described in WO2011/120025) was used at a final assay concentration of 5 nM. Both the enzyme and ligand were prepared in solutions in 50 mM HEPES pH7.5, 150 mM NaCl, 10 mM MgCl2, 1 mM DTT, and 1 mM CHAPS. Test compounds were prepared in 100% DMSO and 100 nL was dispensed to individual wells of a multiwell plate. Next, 5 ul RIPK2 was added to the test compounds at twice the final assay concentration, and incubated at rt for 10 min. Following the incubation, 5 ul of the fluorescent labeled ligand solution, was added to each reaction, at twice the final assay concentration, and incubated at rt for at least 10 min. Finally, samples were read on an instrument capable of measuring fluorescent polarization. Test compound inhibition was expressed as percent (%) inhibition of internal assay controls.
For concentration/dose response experiments, normalized data were fit and pIC50s determined using conventional techniques. The pIC50s are averaged to determine a mean value, for a minimum of 2 experiments.
Full-length human RIPK2 (receptor-interacting serine-threonine kinase 2) cDNA was purchased from Invitrogen (Carlsbad, Calif., USA, Clone ID:IOH6368, RIPK2-pENTR 221). Gateway® LR cloning was used to site-specifically recombine RIPK2 downstream to an N-terminal FLAG-6His contained within the destination vector pDEST8-FLAG-His6 according to the protocol described by Invitrogen. Transfection into Spodoptera frugiperda (Sf9) insect cells was performed using Cellfectin® (Invitrogen), according to the manufacturer's protocol.

[2] = tested on: RIP2 kinase-dependent cytokine production (TNFα) in human whole blood; test: MDP-stimulated human whole blood cytokine (TNFα) production assay; format: cell-based; conditions: inhibition of TNFα, MDP 100 ng/mL, 6 hr, mean of minimum 2 experiments
Method: A muramyl dipeptide (MDP)-stimulated human whole blood cytokine production assay was developed to evaluate the cellular potency and efficacy of novel test compounds. Heparinized blood (160 μL) obtained from healthy human volunteers was dispensed into individual wells of a multiwell plate. Test compounds were dissolved in 100% DMSO and diluted in calcium- and magnesium-free D-PBS to prepare 10× working stock solutions. Twenty microliters of diluted test compound was added per well and the plates were placed on a plate shaker (500 rpm) and incubated for 30 min in a humidified incubator (37° C., 5% CO2). A 10× working stock of MDP was prepared in sterile, endotoxin-free water containing 1% DMSO. Twenty microliters of the MDP stock solution was added per well (final conc.=100 ng/mL) to stimulate RIP2 kinase-dependent cytokine production. The final concentration of DMSO was 0.1% (v/v) in all wells. Plates were incubated for an additional 6 hr (as noted above). Then an additional 100 μL of D-PBS (Dulbecco's phosphate-buffered saline) was added/well, the plates were centrifuged, and supernatants collected. TNFα levels in the supernatants were quantified using a commercial immunoassay (MesoScale Discovery). Test compound inhibition was expressed as percent (%) inhibition of internal assay controls. For concentration/dose response experiments, normalized data were fit and pIC50s determined using conventional techniques. The pIC50s are averaged to determine a mean value, for a minimum of 2 experiments.

[3] = tested on: isolated rabbit left ventricular wedge preparation; test: Rabbit cardiac wedge preparation (ECG and isometric contractile force); conditions: for TdP Score: BCL=2000 ms, score range −2 to 14; for TdP Score / ICF (% change), contractility / QRS / QT / Tp-e (msec), transmural dispersion / Δ QT %: mean, n = 2; for Proarrhythmia: preparations affected of n = 2
Method: Female rabbits weighing 2.2-3 kg were anticoagulated with heparin and anesthetized with pentobarbital (50 mg/kg, i.v.). The chest was opened via a left thoracotomy, and the heart was excised and placed in a cardioplegic solution consisting of cold (4° C.) normal Tyrode's solution. A transmural wedge with dimensions of approximately 1.5 cm wide and 2-3 cm long was dissected from the left ventricle.
The wedge tissue was cannulated via the left anterior descending artery or the circumflex artery and perfused with cardioplegic solution. The preparation was then placed in a small tissue bath and arterially perfused with Tyrode's solution (T: 35.7±0.1° C., perfusion pressure: 30-45 mmHg). The ventricular wedge was allowed to equilibrate in the tissue bath until electrically stable, usually one hour. The preparations were stimulated at basic cycle lengths (BCL) of 1000 and 2000 msec using bipolar silver electrodes insulated except at the tips and applied to the endocardial surface.
A transmural electrocardiogram (ECG) was recorded in all experiments using extracellular silver/silver chloride electrodes placed in the Tyrode's solution bathing the preparation 1.0 to 1.5 cm from the epicardial and endocardial surfaces, along the same vector as the transmembrane recordings (Epi: “+” pole). On the ECG, transmural dispersion of repolarization (TDR) was defined by the interval between the end and the peak of T wave (Tp-e). The QT interval was defined as the time from the onset of the QRS to the point at which the final downslope of the T wave crossed the isoelectric line. QRS, QT, and Tp-e durations are measured for 10 sweeps and averaged per treatment. Data from total population of animals is averaged per treatment, and compared to average control values.
isometric contractile force generation (% ICF) is measured for 10 sweeps and averaged per treatment. Data from total population of animals is averaged per treatment, and compared to average control values.
Each test compound was prepared in 100% DMSO at a stock concentration of 30 mM. Compound was diluted to the highest concentration tested into Tyrode's buffer (containing in mM: 129 NaCl, 4 KCl, 0.9 NaH2PO4, 20 NaHCO3, 1.8 CaCl2, 0.5 MgSO4, and 5.5 glucose, pH 7.4 when buffered with 95% O2 and 5% CO2) from which subsequent serial dilutions were prepared.
Each test compound was tested at 4 concentrations, from 1-30 μM. After the wedge preparations were perfused with normal Tyrode's solution and stimulated at a BCL of 1000 msec for one hour, stimulation frequency was reduced to a BCL of 2000 msec for a 5 minute period of stabilization after which baseline ECG and isometric contractile force (ICF) were recorded. The preparations were then returned to a BCL of 1000 msec and perfused with Tyrode's solution containing a test compound. For each test compound concentration, wedge preparations were perfused for 20 minutes at a BCL of 1000 msec followed by 5 minutes at a BCL of 2000 msec during which ECG and ICF were recorded. The compound of Example 2 (6-(tert-butylsulfonyl)-N-(4,5-dimethyl-1H-pyrazol-3-yl)-7-ethoxyquinazolin-4-amine) was evaluated in the rabbit cardiac wedge preparation. The four major readouts from the wedge preparation include QT prolongation, torsadogenicity (TdP score derived from QT, Tp-e and early after depolarizations), impulse conduction (QRS-related) and contractility, which are presented in Table 2.
A scoring system was used for the estimate of risk of a compound for the relative TdP risk using the isolated rabbit left ventricular wedge preparation: points for the QT interval, the Tp-e/QT ratio. The TdP score was generated by first converting the QT interval and Tp-e/QT ratio to % change from baseline. These values are individually assigned a TdP score based on the following system: <−5%=−1, −5% to 10%=0, 10% to 20%=1, 20% to 30%=2, >30%=3. Total scoring system range is −2 to 14 at BCL=2000 ms.

337 member kinase panel = test: Kinome selectivity, in vitro profiling (Reaction Biology Corporation); format: biochemical; conditions: compound at 1 μM
Method: Kinome selectivity (as conducted by Reaction Biology Corporation, One Great Valley Parkway, Malvern, Pa., USA, 19355, http://www.reactionbiology.com) for the compound of Example 2 (6-(tert-butylsulfonyl)-N-(4,5-dimethyl-1H-pyrazol-3-yl)-7-ethoxyquinazolin-4-amine) was determined via in vitro profiling against a 337 member kinase panel.

[4] = mean of minimum 2 experiments, read-out: pIC50 (converted)
[5] = updated average after continued testing, read-out: average pIC50 after continued testing (converted)

IC50 [1, 4]: 0.0398 µM
IC50 [1, 5]: 0.0316 µM
IC50 [2]: 0.0398 µM
Compound: COCCOc1cc2ncnc(Nc3n[nH]c(C)c3C)c2cc1S(=O)(=O)C(C)(C)C [Example 1, 6-(tert-Butylsulfonyl)-N-(4,5-dimethyl-1H-pyrazol-3-yl)-7-(2-methoxyethoxy)quinazolin-4-amine]

IC50 [1, 4]: 0.0158 µM
IC50 [2]: 0.0631 µM
number of kinases with >50% inhibition, of 337 kinases tested (337 member kinase panel): 4
number of kinases with >70% inhibition, of 337 kinases tested (337 member kinase panel): 1
Compound: CCOc1cc2ncnc(Nc3n[nH]c(C)c3C)c2cc1S(=O)(=O)C(C)(C)C [Example 2, 6-(tert-Butylsulfonyl)-N-(4,5-dimethyl-1H-pyrazol-3-yl)-7-ethoxyquinazolin-4-amine]
TdP Score ([3]; 1 μM): −0.50
ICF (% change), contractility ([3]; 1 μM): −4.4%
QRS ([3]; 1 μM): 39.6 ms
QT ([3]; 1 μM): 346.4 ms
Tp-e (msec), transmural dispersion ([3]; 1 μM): 71.9 ms
Δ QT % ([3]; 1 μM): 3%
Proarrhythmia ([3]; 1 μM): 0/2
TdP Score ([3]; 3 μM): 0.00
ICF (% change), contractility ([3]; 3 μM): −5.3%
QRS ([3]; 3 μM): 39.2 ms
QT ([3]; 3 μM): 351.9 ms
Tp-e (msec), transmural dispersion ([3]; 3 μM): 73.2 ms
Δ QT % ([3]; 3 μM): 4.8%
Proarrhythmia ([3]; 3 μM): 0/2
TdP Score ([3]; 10 μM): −0.50
ICF (% change), contractility ([3]; 10 μM): −15.1%
QRS ([3]; 10 μM): 39.4 ms
QT ([3]; 10 μM): 348.8 ms
Tp-e (msec), transmural dispersion ([3]; 10 μM): 68.4 ms
Δ QT % ([3]; 10 μM): 4.0%
Proarrhythmia ([3]; 10 μM): 0/2
TdP Score ([3]; 30 μM): −0.50
ICF (% change), contractility ([3]; 30 μM): −20.7%
QRS ([3]; 30 μM): 39.7 ms
QT ([3]; 30 μM): 348.8 ms
Tp-e (msec), transmural dispersion ([3]; 30 μM): 69.1 ms
Δ QT % ([3]; 30 μM): 4.0%
Proarrhythmia ([3]; 30 μM): 0/2

IC50 [1, 4]: 0.0126 µM
IC50 [1, 5]: 0.00794 µM
IC50 [2]: 0.1 µM
Compound: CCCOc1cc2ncnc(Nc3n[nH]c(C)c3C)c2cc1S(=O)(=O)C(C)(C)C [Example 3, 6-(tert-Butylsulfonyl)-N-(4,5-dimethyl-1H-pyrazol-3-yl)-7-propoxyquinazolin-4-amine]

IC50 [1, 4]: 0.01 µM
IC50 [2]: 0.0631 µM
Compound: Cc1[nH]nc(Nc2ncnc3cc(OCC4CCCO4)c(S(=O)(=O)C(C)(C)C)cc23)c1C (stereo not shown) [Example 4, 6-(tert-Butylsulfonyl)-N-(4,5-dimethyl-1H-pyrazol-3-yl)-7-((tetrahydrofuran-2-yl)methoxy)quinazolin-4-amine]
